In patent US6750256B1, “Use of aromatic aldehydes as insecticides” (Proguard, Inc., priority 1994, dated 2004):

What was measured:
[1] = test system: rats; settings: cited from earlier work
[2] = test system: human subjects; settings: 12% in petrolatum; 48 hour closed-patch test on human subjects; cited from earlier work
[3] = at 25° C.; cited from earlier work
[4] = test system: human subjects; settings: 20% in diethylphthalate; 100 human subjects; cited from earlier work
[5] = test system: cat flea (Ctenocepalides felis); test: Cat flea contact treatment on sprayed carpet plugs; type: in vivo; settings: 72 hours
Description: The treatment of cat flea (Ctenocepalides felis) with various formulations containing alpha hexyl cinnamaldehyde is tested as follows. In a double blind experiment, variable concentrations of the formulae were tested for activity against cat flea (Ctenocepalides felis). The initial experiments tested alpha hexyl cinnamaldehyde at concentrations of 5%, 10% and 20% in 6% Tween 80. As controls, a formula blank containing 6% Tween 80 and negative control with no formulae were tested. Fleas were put in direct contact with the formulae and mortality was assessed both visually and by probing at 72 hours after contact.
Approximately […] of each formula concentration was sprayed on 0.279 square meter carpet section (DuPont) at 20 PSI. After allowing to air dry (20 minutes), four plugs each 14 cm in diameter were cut from each treated carpet section. One plug was used for each replicate for four total replications. For each treatment and replicate, 25 fleas were introduced on each plug. Plugs were then rolled and put in an escape proof, ventilated 2 liter container. After 72 hours mortality was assessed.

[6] = cited from earlier work
[7] = test system: thrips insects (Frankliniella occidentalis); test: Residual activity on treated filter paper against thrips; type: in vivo; settings: rehydrated 24 and 72 hours after spraying, thrips exposed one hour
Description: In the first experiment, two ml of two concentrations of CNMA (0.3 and 1%) were sprayed on filter paper (Whatman). As a negative control, two ml of water was also sprayed on filter paper. Twenty-four hours later, two ml of water were sprayed on treatment and control filter paper, which were then dried for 30 min. Approximately 30 thrips insects (Frankliniella occidentalis) were introduced onto the treated filter papers and the number of F. occidentalis were observed after one hour. Mean mortality was calculated for each treatment. After 72 hours, the treated filter papers were flipped over and only the negative control filter paper and the filter paper treated with 1% CNMA were sprayed with 2 ml of water and allowed to dry for 30 minutes. Approximately 30 thrips were introduced onto the two treated filter papers and after one hour the number of dead F. occidentalis were observed and the mean mortality calculated for each treatment. A similar assay was conducted using AHCNMA. Mean mortality was higher for rehydrated filter papers compared to non-rehydrated filter papers over time.

[8] = test system: two-spotted spider mite, Tetranychus urticae; test: Spider mite treated petri dish contact bioassay; type: in vivo; settings: positive control, 10 ppm; 24 hours contact
Description: Activity of cinnamic aldehyde and/or coniferyl aldehyde against two-spotted spider mite, Tetranychus urticae is determined as follows. In a double blind experiment, intersurfaces of petri dishes (60 mm diameter) were treated with 100 μl of a test formulation and allowed to air dry and used within the hour. Twenty adult spider mites were put in each dish and the percent of mortality of the spider mites after 24 hours in contact with the treated dishes Was determined.

[9] = test system: Adult human lice (Pediculus humanus); type: in vivo; settings: 2% in water, lice submerged 1, 4 or 10 minutes
Description: Adult human lice (Pediculus humanus) were treated with α-butyl cinnamic aldehyde to determine its pediculicidal activity. […] For each of four replicates, 25 mixed sex lice were placed in a 9 dram plastic vial and covered with a screened plunger to keep the lice from floating to the surface. The vial containing the lice was dipped into a 100 ml beaker containing 2% α-butyl cinnamic aldehyde, which was dissolved in water or distilled water as a negative control. Lice were submerged in the 2% α-butyl cinnamic aldehyde for 1, 4 or 10 minutes. After this time, the test container was removed from the treatment, submerged in a 1000 mL beaker containing distilled water (32° C.) from a wash bottle. Subsequently, lice were allowed to recover in an incubator maintained at 31.7° C. in 60% RH (relative humidity) for 1 hour. Following the recovery period, lice were examined for their ability to move toward heat. For this observation, the lice were placed on a patch which was placed on a second patch that was on top of a slide warmer maintained at 37° C. Lice not dead or morbid (unable to move towards heat 1 hour after treatment; sickly, but not necessarily dying; may recover by 24 hours), will move to the lower patch. Lice again were examined for their ability to move towards 24 hours later. […]

CCCCCCC(C=O)=Cc1ccccc1 [HCA, 2-(phenylmethylene) octanal]
oral LD50 [1]: 3100 mg/kg | irritation [2]: no irritation | vapor pressure [3]: 70×10^−5 mm Hg | reactions in repeated insult patch test [4]: no positive reactions | Percent Mortality ([5]; 5% wt/vol in 6% Tween 80): 84% | Percent Mortality ([5]; 10% wt/vol in 6% Tween 80): 92% | Percent Mortality ([5]; 20% wt/vol in 6% Tween 80): 86% | flea mortality ([5]; all treatments (5%, 10% and 20% in 6% Tween 80)): greater than 80% | dermal LD50 [6]: greater than 3 g/kg | residual activity in words [7]: residual activity

CCN(CC)c1cccc(C)c1 [N,N-diethyl-m-toluamine, reference compound]
vapor pressure [3]: 167×10^−5 mm Hg

CNC(=O)Oc1cccc2ccccc12 [Sevin, reference compound]
Percent Mortality (24 hours) [8]: 100%

CCCCC(C=O)=Cc1ccccc1 [α-butyl cinnamic aldehyde]
mortality ([9]; at 24 hours): 98.6% | knockdown ([9]; at the 1 hour time point): 100%
